In US20190352297A1, “SELECTIVE AURORA A KINASE INHIBITORS” (UNIVERSITAT BERN, priority 2017, published 2019):

Experiments:
[1] = molecular target: T1, Aurora A bound to TPX2 (Homo sapiens, UniProt O14965); experiment: Aurora A kinase activity and inhibition in the presence of TPX2; type: biochemical; conditions: TPX2 present
T1 construct: human Aurora A kinase domain (residues 122-403 in the pET24-d vector); His-tag (cleaved yes); made in house; host or cells: E. coli
T1 sequence (O14965 122-403): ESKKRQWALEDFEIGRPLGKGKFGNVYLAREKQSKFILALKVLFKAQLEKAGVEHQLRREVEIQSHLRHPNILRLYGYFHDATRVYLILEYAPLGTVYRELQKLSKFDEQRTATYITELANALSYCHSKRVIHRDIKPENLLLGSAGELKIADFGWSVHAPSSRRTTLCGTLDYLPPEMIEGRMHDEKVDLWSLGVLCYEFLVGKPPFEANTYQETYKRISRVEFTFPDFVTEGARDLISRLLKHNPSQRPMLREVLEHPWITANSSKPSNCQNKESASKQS
Experimental: Aurora A and AuroraB kinases were assayed using the homogeneous time-resolved fluorescence (HTRF) KinEASE STK2 kit from Cisbio (France). […] For both enzymes, the reactions were run for 30 min at room temperature and stopped by the addition of 10 μL of detection buffer containing EDTA, antiphospho-Ser/Thr antibody labelled with europium cryptate, and XL-665 conjugated streptavidin (62.5 nM final concentration). After incubation at room temperature for one hour, fluorescence was measured at 620 nm (europium cryptate) and 665 nm (XL-665) after excitation at 317 nm (lag time 60 μs, integration time 500 μs) using a Tecan Infinite M1000 PRO microplate reader (Greiner 384-well plates, white, non-binding, small volume). The ratio of fluorescence (665 nm/620 nm) was calculated for each well and the results were expressed as follows: specific signal=ratio (sample)−ratio (negative control), where ratio=665 nm/620 nm×10^4. […] Each concentration was measured in duplicates, and two independent determinations were made for each IC50 value. IC50 curves were generated using a four-parameter logistic model (XLfit from IDBS).

[2] = tested on: pThr288 Aurora A; experiment: Phosphorylation of Aurora A Thr288 in cells; type: cell-based, human; conditions: cells; read-out: cellular IC50 (pT288), phosphorylation of Aurora A Thr288
Experimental: HeLa Kyoto cells were cultured in high-glucose DMEM with GlutaMAX (Life Technologies) media supplemented with 10% fetal calf serum (FCS) in a humidified 5% CO2 incubator at 37° C. For plasmid transfections, cells were seeded at 80-90% confluence. 4 μg of plasmid DNA in 100 μl OptiMEM and 4 μl of Lipofectamine 2000 (Life Technologies) in 100 μl OptiMEM were incubated in parallel for 5 minutes, mixed for 20 minutes and added to each well. All Aurora A clones were constructed using full-length Aurora A as a template with appropriate PCR primer pairs. […] GFP-Aurora AR137A and GFP-Aurora AW277A were engineered using a site directed mutagenesis kit (Agilent Technologies, no. 210515) with appropriate primers. For determining the mitotic index and the chromosome misalignment phenotype, cells were incubated with various concentrations of compounds for 20 h before analysis. Cells were likewise treated with 0.25 μM MLN8237 (Selleckchem, no. S1133) or 5 μM ZM447439 (Selleckchem, no. S1103). For flow cytometry analysis, 50 nM […] and 2.5 μM ZM447439 were used. For rescue experiments, HeLa Kyoto cells were first transfected with GFP-Aurora A, GFP-Aurora AR137A or GFP-Aurora AW277A for 20 h, followed by incubation with 9 for another 20 h before cells were fixed with cold methanol and stained. To assess the impact of compound 9 on cell cycle progression, DNA content was analyzed after propidium iodide staining using FACS (BD Accuri C6 flow cytometer).
For immunofluorescence, cells were fixed in cold methanol, washed in PBT (PBS supplemented with 0.05% Tween-20) and stained with the following primary antibodies: 1:200 rabbit anti-pT288 (Cell Signaling, C39D8), 1:200 rabbit anti-pH3S10 (Cell Signaling, D2C8), 1:500 mouse anti-α-tubulin (Transduction Laboratories, 612709), 1:300 mouse anti-GFP (MAB3580, Millipore), 1:200 anti-TPX2 (Santa Cruz Biotechnology, sc-32863), anti-Aurora A (Invitrogen, 458900). Secondary antibodies were anti-mouse conjugated to Alexa488 or Alexa568, as well as anti-rabbit conjugated to Alexa488 or Alexa568, all used at 1:500 (Invitrogen). […]

IC50 [1]: 1400 nM
IC50 [2]: 760 nM
Compound: CCc1ccc(N=C2SC(=Cc3ccnc(Nc4ccc(C(=O)O)cn4)c3)C(=O)N2C)cc1 [Compound 9]
